Among the data in patent publication US9808003B2, “Herbicidally active 2-(substituted-phenyl)-cyclopentane-1,3-dione compounds and derivatives thereof” (Syngenta Limited, priority 2013, dated 2017) are pest or weed control values, retold here.

What all share (assay): Test 1A glasshouse assay, post-emergence herbicidal activity
Format in all cases: in vivo

Experiment [1] relates to Echinochloa crus-galli (ECHCG). The following applies: Echinochloa crus-galli, 312 h, application rate 250 g/ha, 13 days after application, visual (100%=total damage; 0%=no damage), read-out: Post-emergence Herbicidal Activity (% Phytotoxicity) ECHCG. In a few lines: (§1)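 Test species were sown in pots of standard soil and cultivated for 8 days at 24/16 °C (day/night) with 14 h light and 65% humidity. Plants were next sprayed with the formulated active ingredient (acetone/water 50:50, 0.5% Tween 20). Damage was rated visually as % phytotoxicity 13 days later.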

Experiment [2] concerns Alopecurus myosuroides (ALOMY). The following applies: Alopecurus myosuroides, 312 h, application rate 250 g/ha, 13 days after application, visual (100%=total damage; 0%=no damage), read-out: Post-emergence Herbicidal Activity (% Phytotoxicity) ALOMY. The method, boiled down:
as §1

Experiment [3] has as its system Lolium perenne (LOLPE). The following applies: Lolium perenne, 312 h, application rate 250 g/ha, 13 days after application, visual (100%=total damage; 0%=no damage), read-out: Post-emergence Herbicidal Activity (% Phytotoxicity) LOLPE. In a few lines: as §1
Experiment [4] deals with Avena fatua (AVEFA). The following applies: Avena fatua, 312 h, application rate 250 g/ha, 13 days after application, visual (100%=total damage; 0%=no damage), read-out: Post-emergence Herbicidal Activity (% Phytotoxicity) AVEFA. In a few lines: as §1

Structures are written as SMILES.

For the compound `Cc1cc(-n2cc(Cl)cn2)cc(C)c1C1C(=O)CC(CCNC(=O)c2nc(Cl)ccc2Cl)C1=O` (centres unmarked) [Compound A131], the pest or weed control at 250 g/ha in experiment [1], in experiment [2], in experiment [3] and in experiment [4] was 100% each time.
As for `Cc1cc(-n2cc(Cl)cn2)cc(C)c1C1C(=O)CC(CCNC(=O)c2cccc(Cl)n2)C1=O` (centres unmarked) [Compound A132], the pest or weed control at 250 g/ha in experiment [1], in experiment [2], in experiment [3] and in experiment [4] was 100% each time.
Consider `Cc1cc(-n2cc(Cl)cn2)cc(C)c1C1C(=O)CC(CCNC(=O)c2ncccc2F)C1=O` (centres unmarked) [Compound A133], for which the pest or weed control at 250 g/ha amounted to 100% in experiment [1], 100% in experiment [2], 100% in experiment [3] and 90% in experiment [4].
For the compound `Cc1cc(-n2cc(Cl)cn2)cc(C)c1C1C(=O)CC(CCNC(=O)c2cccc(Br)n2)C1=O` (centres unmarked) [Compound A134], the pest or weed control at 250 g/ha in experiment [1], in experiment [2], in experiment [3] and in experiment [4] was 100% throughout.
On to `Cc1cc(-n2cc(Cl)cn2)cc(C)c1C1C(=O)CC(CCNC(=O)c2cccc(F)n2)C1=O` (centres unmarked) [Compound A135], for which the pest or weed control at 250 g/ha is 100% in experiment [1], 100% in experiment [2], 100% in experiment [3] and 90% in experiment [4].
As to `Cc1cc(-n2cc(Cl)cn2)cc(C)c1C1C(=O)CC(CCNC(=O)c2ccc(Br)cn2)C1=O` (centres unmarked) [Compound A136], the pest or weed control at 250 g/ha is 100% in experiment [1], 100% in experiment [2], 100% in experiment [3] and 90% in experiment [4].
With `Cc1cc(-n2cc(Cl)cn2)cc(C)c1C1C(=O)CC(CCNC(=O)c2ccc(C#N)cn2)C1=O` (centres unmarked) [Compound A137], the pest or weed control at 250 g/ha in experiment [1] is 100%; in experiment [2] it was 80%; in experiment [3], 80%; in experiment [4], 70%.
In the case of `Cc1cc(-n2cc(Cl)cn2)cc(C)c1C1C(=O)CC(CCNC(=O)c2cc(Cl)ccn2)C1=O` (centres unmarked) [Compound A138], the pest or weed control at 250 g/ha in experiment [1] stood at 100%; in experiment [2], 100%; in experiment [3], 100%; in experiment [4], 90%.
Regarding `Cc1cc(-n2cc(Cl)cn2)cc(C)c1C1C(=O)CC(CCNC(=O)c2cccc(C(F)(F)F)n2)C1=O` (centres unmarked) [Compound A139], the pest or weed control at 250 g/ha in experiment [1] is 90%; in experiment [2] it was 90%; in experiment [3] it was 100%; in experiment [4], 90%.
In the case of `Cc1cc(-n2cc(Cl)cn2)cc(C)c1C1C(=O)CC(CCNC(=O)c2nc(Cl)ccc2Br)C1=O` (centres unmarked) [Compound A140], the pest or weed control at 250 g/ha came out at 100% in experiment [1], 90% in experiment [2], 100% in experiment [3] and 100% in experiment [4].
Regarding `C#CCOc1cc(C)c(C2C(=O)CC(CCNC(=O)c3ccccn3)C2=O)c(C)c1` (centres unmarked) [Compound A141A], the pest or weed control at 250 g/ha in experiment [1] came out at 80%; in experiment [2] it was 80%; in experiment [3], 70%; in experiment [4], 80%.
As for `Cc1cc(-n2cc(Cl)cn2)cc(C)c1C1C(=O)CC(CCNC(=O)c2cc(Cl)cc(Cl)n2)C1=O` (centres unmarked) [Compound A141], the pest or weed control at 250 g/ha in experiment [1] was 100%; in experiment [2], 60%; in experiment [3] it was 70%; in experiment [4], 10%.
On the same counts, the results for `Cc1cc(-n2cc(C#N)cn2)cc(C)c1C1C(=O)CC(CCNC(=O)c2ccccn2)C1=O` (centres unmarked) [Compound A142, N-[2-[3-[4-(4-cyanopyrazol-1-yl)-2,6-dimethyl-phenyl]-2,4-dioxo-cyclopentyl]ethyl]pyridine-2-carboxamide] are 100%, 100%, 100% and 90%.
On the same counts, the results for `Cc1cc(C)c(C2C(=O)CC(CCNC(=O)c3nc(Cl)sc3C)C2=O)c(C)c1` (centres unmarked) [Compound A143] are 100%, 90%, 100% and 90%.
For the compound `Cc1cc(Cl)c(C2C(=O)CC(CCNC(=O)c3ncccc3F)C2=O)c(Cl)c1` (centres unmarked) [Compound A144], the pest or weed control at 250 g/ha is 100% in experiment [1], 30% in experiment [2], 90% in experiment [3] and 90% in experiment [4].
For `Cc1cc(C)c(C2C(=O)CC(CCNC(=O)c3cc(Cl)cc(Cl)n3)C2=O)c(C)c1` (centres unmarked) [Compound A146], the pest or weed control at 250 g/ha came out at 100% in experiment [1], 60% in experiment [2], 70% in experiment [3] and 40% in experiment [4].
In the same order, the values of `Cc1cc(C)c(C2C(=O)CC(CCNC(=O)c3cccc(C#N)n3)C2=O)c(C)c1` (centres unmarked) [Compound A147] are 60%, 60%, 70% and 60%.
In the same order, the values of `Cc1cc(C)c(C2C(=O)CC(CCNC(=O)c3cc(C#N)ccn3)C2=O)c(C)c1` (centres unmarked) [Compound A148] are 90%, 70%, 90% and 90%.
In the same order, the values of `Cc1cc(C)c(C2C(=O)CC(CCNC(=O)c3nc(F)ccc3Br)C2=O)c(C)c1` (centres unmarked) [Compound A149] are 100%, 100%, 100% and 100%.
As for `Cc1cc(C)c(C2C(=O)CC(CCNC(=O)c3ncc(C#N)cc3Cl)C2=O)c(C)c1` (centres unmarked) [Compound A150], the pest or weed control at 250 g/ha in experiment [1] turned out to be 80%; in experiment [2] it was 70%; in experiment [3], 80%; in experiment [4], 90%.
For `Cc1cc(C)c(C2C(=O)CC(CCNC(=O)c3cccnc3F)C2=O)c(C)c1` (centres unmarked) [Compound A151], the pest or weed control at 250 g/ha in experiment [1], in experiment [2], in experiment [3] and in experiment [4] was 90% throughout.
Take `Cc1cc(C)c(C2C(=O)CC(CCNC(=O)c3cccnc3C(F)(F)F)C2=O)c(C)c1` (centres unmarked) [Compound A152]: the pest or weed control at 250 g/ha in experiment [1] amounted to 80%; in experiment [2], 80%; in experiment [3] it was 70%; in experiment [4] it was 70%.
Regarding `Cc1cc(-n2cc(Cl)cn2)cc(C)c1C1C(=O)CC(CCNC(=O)c2cc(Br)ccn2)C1=O` (centres unmarked) [Compound A154], the pest or weed control at 250 g/ha in experiment [1], in experiment [2], in experiment [3] and in experiment [4] was 100% in each case.
In the case of `Cc1cc(-n2cc(Cl)cn2)cc(C)c1C1C(=O)CC(CCNC(=O)c2ccc(Cl)cn2)C1=O` (centres unmarked) [Compound A155], the pest or weed control at 250 g/ha in experiment [1], in experiment [2], in experiment [3] and in experiment [4] was 100% in each case.
With `Cc1ccnc(C(=O)NCCC2CC(=O)C(c3c(C)cc(-n4cc(Cl)cn4)cc3C)C2=O)c1` (centres unmarked) [Compound A156], the pest or weed control at 250 g/ha was found to be 100% in experiment [1], 50% in experiment [2], 90% in experiment [3] and 90% in experiment [4].
Consider `Cc1cc(C)c(C2C(=O)CC(CCNC(=O)c3cncc(Cl)c3)C2=O)c(C)c1` (centres unmarked) [Compound A157], for which the pest or weed control at 250 g/ha in experiment [1] is 90%; in experiment [2], 70%; in experiment [3], 70%; in experiment [4], 70%.
`Cc1cc(C)c(C2C(=O)CC(CCNC(=O)c3ccc(F)nc3)C2=O)c(C)c1` (centres unmarked) [Compound A158]: the pest or weed control at 250 g/ha amounted to 70% in experiment [1], 80% in experiment [2], 80% in experiment [3] and 90% in experiment [4].
Consider `Cc1cc(C)c(C2C(=O)CC(CCNC(=O)c3nn(C)c(Cl)c3C)C2=O)c(C)c1` (centres unmarked) [Compound A160], for which the pest or weed control at 250 g/ha was found to be 100% in experiment [1], 90% in experiment [2], 90% in experiment [3] and 100% in experiment [4].
For `Cc1cc(C)c(C2C(=O)CC(CCNC(=O)c3c(Cl)c(C(F)(F)F)nn3C)C2=O)c(C)c1` (centres unmarked) [Compound A161], the pest or weed control at 250 g/ha in experiment [1] worked out at 100%; in experiment [2] it was 90%; in experiment [3], 100%; in experiment [4], 100%.
